ChEMBL document CHEMBL1909046, “DrugMatrix in vitro pharmacology data”

Experiments:
[1] = molecular target: T1, Alpha-1B adrenergic receptor (Rattus norvegicus, UniProt P15823); test: DRUGMATRIX: Alpha-1B adrenergic receptor radioligand binding (ligand: prazosin); type: cell membranes, Wistar, Liver, Membrane; settings: Not Active = under 50% inhibition at 10 µM
T1 sequence (P15823 whole entry): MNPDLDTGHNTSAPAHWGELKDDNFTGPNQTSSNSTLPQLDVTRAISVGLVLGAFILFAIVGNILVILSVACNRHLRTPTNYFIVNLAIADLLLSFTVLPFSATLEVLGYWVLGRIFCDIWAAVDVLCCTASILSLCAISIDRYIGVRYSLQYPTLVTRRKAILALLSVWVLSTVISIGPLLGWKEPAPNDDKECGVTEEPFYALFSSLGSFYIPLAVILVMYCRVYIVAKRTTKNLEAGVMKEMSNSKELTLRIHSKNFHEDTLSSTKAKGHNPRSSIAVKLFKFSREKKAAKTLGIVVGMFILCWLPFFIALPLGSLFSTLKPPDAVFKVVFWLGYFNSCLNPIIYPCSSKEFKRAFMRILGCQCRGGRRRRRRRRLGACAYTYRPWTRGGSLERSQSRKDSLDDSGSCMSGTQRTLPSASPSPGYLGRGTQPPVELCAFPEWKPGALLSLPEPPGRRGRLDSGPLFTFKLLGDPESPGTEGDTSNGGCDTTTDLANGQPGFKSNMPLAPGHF

Cytochrome P450 2C19 = Cytochrome P450 2C19 (Homo sapiens, UniProt P33261); settings: bti-tn-5b1-4; further: in other assays of this panel Not Active means under 50% inhibition at 10 µM
Cytochrome P450 2C19, sequence (P33261 whole entry): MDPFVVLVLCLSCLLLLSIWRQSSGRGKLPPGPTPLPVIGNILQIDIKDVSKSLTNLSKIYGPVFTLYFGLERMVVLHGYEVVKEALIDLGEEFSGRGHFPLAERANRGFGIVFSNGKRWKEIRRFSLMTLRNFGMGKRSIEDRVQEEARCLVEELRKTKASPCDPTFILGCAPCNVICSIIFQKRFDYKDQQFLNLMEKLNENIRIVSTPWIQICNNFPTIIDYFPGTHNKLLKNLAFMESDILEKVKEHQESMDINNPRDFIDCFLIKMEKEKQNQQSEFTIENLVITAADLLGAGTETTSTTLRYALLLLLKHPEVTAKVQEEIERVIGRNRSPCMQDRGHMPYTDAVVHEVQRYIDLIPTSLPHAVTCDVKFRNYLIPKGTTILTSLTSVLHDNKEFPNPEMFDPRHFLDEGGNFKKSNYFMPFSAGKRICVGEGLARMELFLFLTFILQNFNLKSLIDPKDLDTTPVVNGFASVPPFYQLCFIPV

[2] = molecular target: cGMP-specific 3',5'-cyclic phosphodiesterase (Homo sapiens, UniProt O76074); test: DRUGMATRIX: Phosphodiesterase PDE5 enzyme inhibition (substrate: [3H]cGMP + cGMP); type: tissue-based, Platelet; settings: platelet; Not Active = under 50% inhibition at 10 µM
Carbonic anhydrase 2 = Carbonic anhydrase 2 (Homo sapiens, UniProt P00918); test: DRUGMATRIX: Carbonic Anhydrase II enzyme inhibition (substrate: 4-Nitrophenyl acetate (4-NPA)); type: tissue-based, Erythrocyte; settings: erythrocyte; Not Active = under 50% inhibition at 10 µM
[3] = molecular target: 5-hydroxytryptamine receptor 1B (Rattus norvegicus, UniProt P28564); type: cell membranes, Wistar, Cerebral cortex, Membrane; further: in other assays of this panel Not Active means under 50% inhibition at 10 µM
5-hydroxytryptamine receptor 1B, sequence (P28564 whole entry): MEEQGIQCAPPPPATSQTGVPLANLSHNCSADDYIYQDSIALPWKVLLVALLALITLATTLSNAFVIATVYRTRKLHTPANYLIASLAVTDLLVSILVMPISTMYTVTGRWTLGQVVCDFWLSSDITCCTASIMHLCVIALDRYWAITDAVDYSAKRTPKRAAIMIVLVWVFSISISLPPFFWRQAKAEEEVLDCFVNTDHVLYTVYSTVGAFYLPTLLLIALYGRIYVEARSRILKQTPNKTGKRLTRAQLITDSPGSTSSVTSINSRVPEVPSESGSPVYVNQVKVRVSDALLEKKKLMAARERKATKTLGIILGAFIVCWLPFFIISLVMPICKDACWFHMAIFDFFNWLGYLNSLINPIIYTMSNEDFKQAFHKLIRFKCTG

[4] = molecular target: Prostaglandin G/H synthase 1 (Homo sapiens, UniProt P23219); test: biochemical; type: tissue-based, Platelet; settings: platelet;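 further: inhibition of COX-1 enzyme activity, with arachidonic acid supplied as substrate; in other assays of this panel Not Active means under 50% inhibition at 10 µM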
Prostaglandin G/H synthase 1, sequence (P23219 whole entry): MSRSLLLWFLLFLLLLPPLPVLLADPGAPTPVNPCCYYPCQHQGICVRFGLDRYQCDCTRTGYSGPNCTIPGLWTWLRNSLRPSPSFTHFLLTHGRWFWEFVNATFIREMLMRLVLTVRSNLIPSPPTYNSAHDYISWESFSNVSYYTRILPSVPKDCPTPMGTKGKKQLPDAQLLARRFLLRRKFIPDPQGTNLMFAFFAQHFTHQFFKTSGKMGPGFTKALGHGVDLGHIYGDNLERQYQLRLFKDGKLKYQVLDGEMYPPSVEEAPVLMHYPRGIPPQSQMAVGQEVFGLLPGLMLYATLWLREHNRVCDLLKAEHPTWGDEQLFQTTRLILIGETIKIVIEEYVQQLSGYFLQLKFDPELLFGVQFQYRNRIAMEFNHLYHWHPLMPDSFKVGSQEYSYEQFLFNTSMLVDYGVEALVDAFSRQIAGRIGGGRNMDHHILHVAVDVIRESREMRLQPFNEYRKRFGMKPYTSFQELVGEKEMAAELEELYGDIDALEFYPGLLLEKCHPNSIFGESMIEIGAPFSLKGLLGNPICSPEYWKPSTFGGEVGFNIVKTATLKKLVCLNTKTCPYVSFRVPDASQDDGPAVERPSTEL

Cytochrome P450 2C9 = Cytochrome P450 2C9 (Homo sapiens, UniProt P11712); settings: bti-tn-5b1-4; further: in other assays of this panel Not Active means under 50% inhibition at 10 µM
Cytochrome P450 2C9, sequence (P11712 whole entry): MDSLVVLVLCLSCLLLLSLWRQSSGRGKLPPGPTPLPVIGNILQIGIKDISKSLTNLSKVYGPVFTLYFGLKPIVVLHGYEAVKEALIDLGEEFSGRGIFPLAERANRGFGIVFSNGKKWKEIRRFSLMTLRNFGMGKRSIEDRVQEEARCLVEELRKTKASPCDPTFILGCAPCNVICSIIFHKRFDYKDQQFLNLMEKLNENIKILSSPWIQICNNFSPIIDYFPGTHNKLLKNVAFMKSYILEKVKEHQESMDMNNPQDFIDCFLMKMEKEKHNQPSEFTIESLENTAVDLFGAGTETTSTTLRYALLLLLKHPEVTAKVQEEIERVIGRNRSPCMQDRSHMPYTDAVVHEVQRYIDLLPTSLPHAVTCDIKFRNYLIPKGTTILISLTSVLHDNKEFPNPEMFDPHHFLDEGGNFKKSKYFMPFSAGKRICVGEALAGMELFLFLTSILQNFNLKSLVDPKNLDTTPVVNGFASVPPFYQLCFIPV

Compound	IC50 [1]	IC50 (Cytochrome P450 2C19)	Ki (Cytochrome P450 2C19)	IC50 [2]	IC50 (Carbonic anhydrase 2)	IC50 [3]	IC50 [4]	Ki [1]	IC50 (Cytochrome P450 2C9)	Ki (Cytochrome P450 2C9)	Ki [2]	Ki (Carbonic anhydrase 2)	Ki [3]	Ki [4]	IC50 ([3]; read-out: IC50)	Ki ([3]; read-out: Ki)
COc1ccc(Cl)cc1C(=O)NCCc1ccc(S(=O)(=O)NC(=O)NC2CCCCC2)cc1 [GLYBURIDE]	Not Active	Not Active	Not Active	Not Active	Not Active	Not Active	Not Active	–	–	–	–	–	–	–	–	–
CHROMIC CHLORIDE	Not Active	Not Active	Not Active	Not Active	Not Active	Not Active	Not Active	Not Active	Not Active	Not Active	Not Active	Not Active	Not Active	Not Active	–	–
CCN1C[C@]2(COC)[C@H](O)C[C@H](OC)[C@@]34[C@@H]5C[C@@]6(O)[C@H](OC(=O)c7ccccc7)[C@@H]5[C@@](OC(C)=O)([C@@H]([C@H](OC)[C@H]23)[C@@H]14)[C@@H](O)[C@@H]6OC [ACONITINE]	Not Active	Not Active	Not Active	Not Active	Not Active	Not Active	Not Active	–	Not Active	Not Active	–	–	–	–	–	–
O=C(O)CCc1nc(-c2ccccc2)c(-c2ccccc2)o1 [OXAPROZIN]	Not Active	Not Active	Not Active	Not Active	Not Active	Not Active	–	–	Not Active	Not Active	–	–	–	–	–	–
Cc1ccnc2c1NC(=O)c1cccnc1N2C1CC1 [NEVIRAPINE]	Not Active	Not Active	Not Active	Not Active	Not Active	Not Active	Not Active	–	Not Active	Not Active	–	–	–	–	–	–
Clc1cc(Cl)c(OCC#CI)cc1Cl [HALOPROGIN]	Not Active	Not Active	Not Active	Not Active	Not Active	Not Active	Not Active	–	Not Active	Not Active	–	–	–	–	–	–
COc1ccccc1OCCNCC(O)COc1cccc2[nH]c3ccccc3c12 (configuration not stated) [CARVEDILOL]	–	Not Active	Not Active	Not Active	Not Active	–	Not Active	–	Not Active	Not Active	–	–	–	–	1300 nM	589 nM
CCN1CCN(c2cc3c(cc2F)c(=O)c(C(=O)O)cn3C2CC2)CC1 [ENROFLOXACIN]	Not Active	Not Active	Not Active	Not Active	Not Active	Not Active	Not Active	–	Not Active	Not Active	–	–	–	–	–	–
POVIDONE	Not Active	Not Active	Not Active	Not Active	Not Active	Not Active	Not Active	Not Active	Not Active	Not Active	Not Active	Not Active	Not Active	Not Active	–	–
C=C(Cl)Cl [1,1-DICHLOROETHENE]	Not Active	Not Active	Not Active	Not Active	Not Active	Not Active	Not Active	–	Not Active	Not Active	–	–	–	–	–	–
CC(=O)[C@]1(O)Cc2c(O)c3c(c(O)c2[C@@H](O[C@H]2C[C@H](N)[C@H](O)[C@H](C)O2)C1)C(=O)c1ccccc1C3=O [IDARUBICIN]	Not Active	Not Active	Not Active	Not Active	Not Active	Not Active	Not Active	–	Not Active	Not Active	–	–	–	–	–	–
NC(=O)CN1CCCC1=O	Not Active	Not Active	Not Active	Not Active	Not Active	Not Active	Not Active	–	Not Active	Not Active	–	–	–	–	–	–
CO[C@H]1O[C@@H]2O[C@@]3(C)CC[C@H]4[C@H](C)CC[C@@H]([C@H]1C)[C@@]24OO3	Not Active	Not Active	Not Active	Not Active	Not Active	Not Active	Not Active	–	Not Active	Not Active	–	–	–	–	–	–
CC12CCC(CC1)C(C)(C)O2 [EUCALYPTOL]	Not Active	Not Active	Not Active	Not Active	Not Active	Not Active	Not Active	–	Not Active	Not Active	–	–	–	–	–	–
C[N+](C)(C)CCOC(N)=O.[Cl-] [CARBACHOL]	Not Active	Not Active	Not Active	Not Active	Not Active	Not Active	Not Active	–	Not Active	Not Active	–	–	–	–	–	–
